Literature values, collected in patent publication US7276253B2, “Stable drug form for oral administration with benzimidazole derivatives as active ingredient and process for the preparation thereof” (AstraZeneca AB, priority 1996, dated 2007).

Settings: aqueous solution at pH values under 4

half-life: less than ten
SMILES: COc1ccc2[nH]c([S+]([O-])Cc3ncc(C)c(OC)c3C)nc2c1 (stereo not shown) [Omeprazole, 5-methoxy-2(((4-methoxy-3,5-dimethyl-2-pyridyl)methyl)-sulfinyl)-1H-benzimidazole]
